US5045543A, “5-amino or substituted amino 1,2,3-triazoles useful as antimetastatic agents” (Merck & Co., Inc., priority 1989, dated 1991)
“Also recorded” adds a separate entry of the source.

Experiments:
PRPP synthetase [1] = assay: Direct inhibition of PRPP synthetase in vitro; assay type: biochemical; details: in vitro studies
[2] = system: Normal Human Epidermal Keratinocytes (NHEK); assay: Inhibition of growth of Normal Human Epidermal Keratinocytes (NHEK); assay type: cell-based; details: for inhibition at 0.5 µg/mL / inhibition at 1 µg/mL / inhibition at 2 µg/mL: Homo sapiens, NHEK
Experimental: (§1) The inhibition of PRPP biosynthesis by Compound A and analogs supported the claimed use of the compounds as antiproliferative agents, since this inhibition should prevent all de novo and salvage biosynthesis of purine and pyrimidine nucleotides. […] The data from NHEK's is particularly important since it is the overproliferation of these cells that occurs in psoriasis.
(§2) In these experiments Murine keratinocyte transformed cell line PAPp26 was cultured in Dulbecco's modified Eagle's medium with 10% fetal calf serum at 37° C., 5% CO2. Each well of a 96 well plate was seeded with 2000 cells in 200 μl of each drug dilution in duplicate. A plate was stopped and fixed for each time point, stained with Giemsa and then read in a Titertek plate reader at 650 nm, and the absorbances were calibrated with known cell numbers on control plates. NHEK's were obtained from Clonetics Corporation at the secondary stage. Antiproliferative assays were done as for the murine keratinocytes. Media (KGM) without serum was supplied by Clonetics also. Normal Human Fibroblasts and MDBK cells were grown under the same conditions except that MDBK cells were grown at 41° C.

[3] = system: pig skin epidermal basal cells (keratinocytes); assay: UV induced hyperproliferation in pig skin in vivo (topical antiproliferative activity); details: for effect on uv induced hyperproliferation: daily topical application; for LI (labelling index): uv exposed Gel #1 control 20.8, normal 7.6
Experimental: (§3) The topical antiproliferative activities, along with in vitro antiproliferative activities against human keratinocytes and fibroblasts, provide the biological data in support of the claimed utility:
In one experiment, a 20 kg pig was sedated and multiple areas of clipped skin were exposed to uv radiation sufficient to provoke a moderate hyperproliferative response within several days of exposure. On days 0, 1, 2 and 3 replicate irradiated sites were treated topically with Compound A in several vehicles or solvents. Topical preparations included a 2% drug in Gel #1, a combination of isopropyl myristate:Crodamol:ethanol, 1:1:2, or DMSO. The hyperproliferative response of the skin to uv was assessed on day 4 by injecting ^3 H-thymidine intradermally, and, 1 hour later, removing the sites by punch biopsy and processing the samples for autoradiography. Such autoradiographs indicate the number of epidermal cells in S phase synthesizing DNA and this is a common tool used by dermatologists to assess inhibition of proliferation in vivo. A single injection of methotrexate, 4 hours prior to ^3 H-thymidine injection was used as a positive control for inhibition of DNA synthesis. A labelling index, L.I., which is the percent of the total number of epidermal basal cells (keratinocytes) counted showing label incorporation. Four days after exposure to uv, the L.I. of pig skin increased from 7.6% to 20.8% (normal human skin ca. 2%, psoriatic lesions ca. 25%, for comparison).

[4] = system: nucleotide pools in mammalian cells; assay: Inhibition of nucleotide biosynthesis: incorporation of hypoxanthine, adenine, formate into nucleotide pools of mammalian cells; assay type: cell-based; details: 1 μg/ml
Normal Human Fibroblasts = assay: Inhibition of fibroblast growth; assay type: cell-based; details: for inhibition at 0.1 µg/mL / inhibition at 0.2 µg/mL / inhibition at 0.4 µg/mL / inhibition at 1 µg/mL / inhibition at 2 µg/mL: Homo sapiens, Fibroblast
Experimental: as §1, §2

[5] = system: Maden Darby Bovine Kidney (MDBK) cells; assay: 3H-Hypoxanthine uptake (incorporation) into MDBK cells; assay type: cell-based; details: 1.0 μg/ml; for inhibition at 1 µg/mL: Bos taurus, MDBK
Experimental: Compound A and analogs are capable of inhibiting nucleotide biosynthesis in a variety of mammalian cell types.
Confluent cells were incubated in Eagles Minimal Essential media for 2.5 hours, then incubated with Phosphate buffered saline +Ca +Mg for 30 minutes, and then they were incubated with or without 1 μg/ml Compound A for 15 minutes. Media containing 100 μM 8-^3 H-hypoxanthine with or without drug was incubated for the time shown with the cells after which they were quenched by immersion in ice cold buffer. The DPM measurements were made on aliquots of neutralized perchloric acid supernatants.

intact pig skin = assay: Labelled thymidine incorporation into intact pig skin; details: in vivo
P388 leukemia = assay: Life prolongation assay, P388 leukemia in nude mice; assay type: in vivo; details: for life prolongation: control survival 15 to 20 days
Experimental: as §3
The doses used were 240, 120 and 60 mg/kg delivered i.p. once per day for five days.

PRPP synthetase [6] = assay: PRPP synthetase activity / PRPP biosynthesis in cell based experiments
5-lipoxygenase = assay: Direct inhibition of 5-lipoxygenase; assay type: biochemical

Q: Which results are given for `NC(=O)c1nnn(Cc2cc(Cl)c(C(=O)c3ccc(Cl)cc3)c(Cl)c2)c1N` [Compound A, 5-amino-1-(4-(4-chlorobenzoyl)-3,5-dichlorobenzyl)-1,2,3-triazole-4-carboxamide]?
A: direct inhibition of PRPP synthetase (PRPP synthetase [1]): no direct inhibition of the enzyme occurred; NHEK growth, ABS-background (650 nm) ([2]; 0.5 μg/ml, day 4, control .090): .085; NHEK growth, ABS-background (650 nm) ([2]; 0.5 μg/ml, day 5, control .190): .115; NHEK growth, ABS-background (650 nm) ([2]; 0.5 μg/ml, day 7, control .390): .190; NHEK growth, ABS-background (650 nm) ([2]; 1.0 μg/ml, day 4, control .090): .040; NHEK growth, ABS-background (650 nm) ([2]; 1.0 μg/ml, day 5, control .190): .050; NHEK growth, ABS-background (650 nm) ([2]; 1.0 μg/ml, day 7, control .390): .120; NHEK growth, ABS-background (650 nm) ([2]; 2.0 μg/ml, day 4, control .090): .005; NHEK growth, ABS-background (650 nm) ([2]; 2.0 μg/ml, day 5, control .190): .010; NHEK growth, ABS-background (650 nm) ([2]; 2.0 μg/ml, day 7, control .390): .050; inhibition at 0.5 µg/mL ([2]; 96 h, 0.5 μg/ml, day 4): 6%; inhibition at 1 µg/mL ([2]; 96 h, 1.0 μg/ml, day 4): 56%; inhibition at 2 µg/mL ([2]; 96 h, 2.0 μg/ml, day 4): 94%; inhibition at 0.5 µg/mL ([2]; 120 h, 0.5 μg/ml, day 5): 40%; inhibition at 1 µg/mL ([2]; 120 h, 1.0 μg/ml, day 5): 74%; inhibition at 2 µg/mL ([2]; 120 h, 2.0 μg/ml, day 5): 95%; inhibition at 0.5 µg/mL ([2]; 168 h, 0.5 μg/ml, day 7): 51%; inhibition at 1 µg/mL ([2]; 168 h, 1.0 μg/ml, day 7): 70%; inhibition at 2 µg/mL ([2]; 168 h, 2.0 μg/ml, day 7): 87%; inhibition of growth of NHEK ([2]; approximately 1.0 μg/ml): substantial inhibition; inhibition of uv induced hyperproliferation in pig skin ([3]; 2% formulation in Gel #1, topical): inhibits completely; effect on uv induced hyperproliferation ([3]; Crodamol): less effective; effect on uv induced hyperproliferation ([3]; DMSO): no effect; effect on uv induced hyperproliferation ([3]; Gel #1): dramatically reduced the uv induced hyperproliferation; topical antiproliferative activity ([3]; effects dependent upon vehicle): active topically as an antiproliferative; also recorded: Topical activity against keratinocyte proliferation has been demonstrated; UV induced hyperproliferation, % Inhibition ([3]; topical, Crodamol): 29%; Labelled Cells ([3]; topical, Crodamol, of 963 basal cells counted): 165; LI (labelling index) ([3]; topical, Crodamol): 17.0%; UV induced hyperproliferation, % Inhibition ([3]; topical, DMSO): 0%; Labelled Cells ([3]; topical, DMSO, of 744 basal cells counted): 150; LI (labelling index) ([3]; topical, DMSO): 20.1%; UV induced hyperproliferation, % Inhibition ([3]; topical, Gel #1): 100%; inhibition of proliferation compared with injected methotrexate ([3]; topical, Gel #1): comparable to that for injected methotrexate; Labelled Cells ([3]; topical, Gel #1, of 1020 basal cells counted): 57; LI (labelling index) ([3]; topical, Gel #1): 5.6%; adenine incorporation into nucleotide pools ([4]; mammalian cells): disrupted; formate incorporation into nucleotide pools ([4]; mammalian cells): disrupted; hypoxanthine incorporation into nucleotide pools ([4]; mammalian cells): disrupted; inhibition of nucleotide biosynthesis ([4]; variety of mammalian cells in monolayer culture): efficacy; Fibroblast growth, No. of Cells - seeding cells (Normal Human Fibroblasts; 0.1 μg/ml, 2 days, control 10.5 × 10^3): 4 × 10^3; Fibroblast growth, No. of Cells - seeding cells (Normal Human Fibroblasts; 0.1 μg/ml, 3 days, control 14 × 10^3): 5 × 10^3; Fibroblast growth, No. of Cells - seeding cells (Normal Human Fibroblasts; 0.1 μg/ml, 6 days, control 23 × 10^3): 19 × 10^3; Fibroblast growth, No. of Cells - seeding cells (Normal Human Fibroblasts; 0.2 μg/ml, 2 days, control 10.5 × 10^3): 5 × 10^3; Fibroblast growth, No. of Cells - seeding cells (Normal Human Fibroblasts; 0.2 μg/ml, 3 days, control 14 × 10^3): 2 × 10^3; Fibroblast growth, No. of Cells - seeding cells (Normal Human Fibroblasts; 0.2 μg/ml, 6 days, control 23 × 10^3): 16.5 × 10^3; Fibroblast growth, No. of Cells - seeding cells (Normal Human Fibroblasts; 0.4 μg/ml, 2 days, control 10.5 × 10^3): 7 × 10^3; Fibroblast growth, No. of Cells - seeding cells (Normal Human Fibroblasts; 0.4 μg/ml, 3 days, control 14 × 10^3): 6.5 × 10^3; Fibroblast growth, No. of Cells - seeding cells (Normal Human Fibroblasts; 0.4 μg/ml, 6 days, control 23 × 10^3): 13 × 10^3; Fibroblast growth, No. of Cells - seeding cells (Normal Human Fibroblasts; 1.0 μg/ml, 2 days, control 10.5 × 10^3): 2 × 10^3; Fibroblast growth, No. of Cells - seeding cells (Normal Human Fibroblasts; 1.0 μg/ml, 3 days, control 14 × 10^3): 0; Fibroblast growth, No. of Cells - seeding cells (Normal Human Fibroblasts; 1.0 μg/ml, 6 days, control 23 × 10^3): 6 × 10^3; Fibroblast growth, No. of Cells - seeding cells (Normal Human Fibroblasts; 2.0 μg/ml, 2 days, control 10.5 × 10^3): 2 × 10^3; Fibroblast growth, No. of Cells - seeding cells (Normal Human Fibroblasts; 2.0 μg/ml, 3 days, control 14 × 10^3): .5 × 10^3; Fibroblast growth, No. of Cells - seeding cells (Normal Human Fibroblasts; 2.0 μg/ml, 6 days, control 23 × 10^3): 4 × 10^3; inhibition at 0.1 µg/mL (Normal Human Fibroblasts; 48 h, 0.1 μg/ml, 2 days): 62%; inhibition at 0.2 µg/mL (Normal Human Fibroblasts; 48 h, 0.2 μg/ml, 2 days): 48%; inhibition at 0.4 µg/mL (Normal Human Fibroblasts; 48 h, 0.4 μg/ml, 2 days): 33%; inhibition at 1 µg/mL (Normal Human Fibroblasts; 48 h, 1.0 μg/ml, 2 days): 81%; inhibition at 2 µg/mL (Normal Human Fibroblasts; 48 h, 2.0 μg/ml, 2 days): 81%; inhibition at 0.1 µg/mL (Normal Human Fibroblasts; 72 h, 0.1 μg/ml, 3 days): 64%; inhibition at 0.2 µg/mL (Normal Human Fibroblasts; 72 h, 0.2 μg/ml, 3 days): 86%; inhibition at 0.4 µg/mL (Normal Human Fibroblasts; 72 h, 0.4 μg/ml, 3 days): 54%; inhibition at 1 µg/mL (Normal Human Fibroblasts; 72 h, 1.0 μg/ml, 3 days): 100%; inhibition at 2 µg/mL (Normal Human Fibroblasts; 72 h, 2.0 μg/ml, 3 days): 96%; inhibition at 0.1 µg/mL (Normal Human Fibroblasts; 144 h, 0.1 μg/ml, 6 days): 18%; inhibition at 0.2 µg/mL (Normal Human Fibroblasts; 144 h, 0.2 μg/ml, 6 days): 28%; inhibition at 0.4 µg/mL (Normal Human Fibroblasts; 144 h, 0.4 μg/ml, 6 days): 44%; inhibition at 1 µg/mL (Normal Human Fibroblasts; 144 h, 1.0 μg/ml, 6 days): 74%; inhibition at 2 µg/mL (Normal Human Fibroblasts; 144 h, 2.0 μg/ml, 6 days): 83%; inhibition of growth of Normal Human Fibroblasts (Normal Human Fibroblasts; approximately 1.0 μg/ml): substantial inhibition; 3H-hypoxanthine incorporation into MDBK cells ([5]; Eagles Minimal Essential media): substantially reduced; 3H-Hypoxanthine Uptake, DPM ([5]; 10 min, control 87000): 36000 DPM; 3H-Hypoxanthine Uptake, DPM ([5]; 20 min, control 140000): 40000 DPM; 3H-Hypoxanthine Uptake, DPM ([5]; 30 min, control 190000): 40000 DPM; inhibition at 1 µg/mL ([5]; 10 min): 59%; inhibition at 1 µg/mL ([5]; 20 min): 71%; inhibition at 1 µg/mL ([5]; 30 min): 79%; inhibition of labelled thymidine incorporation into intact pig skin (intact pig skin): inhibits; life prolongation (P388 leukemia; 60 mg/kg i.p. once per day for five days): 127%; life prolongation (P388 leukemia; 120 mg/kg i.p. once per day for five days): 124%; life prolongation (P388 leukemia; 240 mg/kg i.p. once per day for five days): 134%; in vivo activity against P388 leukemia (P388 leukemia; 240, 120, 60 mg/kg i.p.): significant in vivo activity; minimal effective dose (P388 leukemia; Mus musculus, ip, P388 leukemia, nude mice, read-out: active dose in life prolongation assay): ≥ 60 mg/kg/day; PRPP synthetase activity (PRPP synthetase [6]): dramatically lowered; direct inhibition of 5-lipoxygenase (5-lipoxygenase): no evidence of direct inhibition
